From patent US20220144838A1, “Compounds as Inhibitors of Macrophage Migration Inhibitory Factor” (NANJING IMMUNOPHAGE BIOTECH CO., LTD., priority 2019, published 2022) come the findings set out here.

One experiment concerns the target T1, MIF (Homo sapiens, UniProt P14174).
T1 sequence (P14174 2-115 limits assumed): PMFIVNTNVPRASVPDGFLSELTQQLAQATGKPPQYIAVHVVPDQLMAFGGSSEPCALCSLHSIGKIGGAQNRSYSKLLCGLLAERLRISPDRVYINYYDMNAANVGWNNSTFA
Kind of experiment: MIF tautomerase assay using pHPP as substrate. The experiment is classed as biochemical. To be noted: inhibition of the MIF enzyme in vitro; mean of multiple test results; read-out: Tautomerase Inhibition pIC50 (converted). An outline of the steps:
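Mean pIC50 derived from initial rates (absorbance progress-curve slopes) of MIF-catalyzed ketonic-to-enolic pHPP conversion, read as enol–borate complex. Reactions contained 1.5 mM substrate and 3 nM enzyme (final), 200 mM boric acid stock buffer, BSA and CHAPS, pH 6.0.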

Another experiment relates to BV2 cells. Kind of experiment: BV2 cell proliferation assay (CCK-8). The experiment is classed as cell-based. The following applies: Mus musculus, BV-2, 48 h treatment, FIGS. 6-8, read-out: pIC50 BV2 cell proliferation (converted). The text has this:
The assay measures the ability of a compound to inhibit cell proliferation using Cell Counting Kit-8 (CCK-8), which allows sensitive colorimetric assays for the determination of cell viability in cell proliferation and cytotoxicity assays. The highly water-soluble tetrazolium salt, WST-8, is reduced by dehydrogenase activities in cells to give a yellow-color formazan dye, which is soluble in the tissue culture media. The amount of the formazan dye, generated by the activities of dehydrogenases in cells, is directly proportional to the number of living cells.
The assay was performed based on the instruction of the manufacture (Dojindo Molecular Technologies Inc., Rockville, Md., USA). To start the assay, BV2 cells were seeded at a density of […] into 96-well plates and treated with test compounds, which were used at a top final assay concentration of 33.3 μM, diluted in assay medium with 1:3 dilutions to produce 10 point concentration responses, for 48 h. After incubation, the CCK-8 solution (10 μl) was added to each well of the plate and the plates were incubated in incubator at 37° C. for 3 h. Absorbance was recorded three times independently using a microplate reader (Bio-Rad Laboratories, Richmond, Calif., USA) at 450 nm.
Selected examples were tested in the BV2 cell proliferation assay. The data mentioned below represents a mean pIC50 value of multiple test results. It is understood that the data illustrated below may have reasonable variation depending on the specific conditions and procedures used by the person conducting the testing.

For another experiment, the system named is 4T1 cells. Nature of the experiment: 4T1 breast cancer syngeneic mouse model. The experiment is classed as in vivo, Balb/c mice. The following applies: 4T1 model; IMG-321 20 mg/kg b.i.d. combined with gemcitabine 3 mg/kg once every 10 days. Here is the method: Female Balb/c mice (5-6 weeks old) were purchased from Charles River Laboratories (Hollister, Calif.). Animals were housed and treated in accordance with Institutional Animal Care and Use Committee guidelines. For the generation of 4T1 breast cancer model, 1×10^5 4T1 cells were injected orthotopically into the mammary fat pad. For the generation of lung cancer model, 1×10^5 LLC cells were injected subcutaneously. For the generation of murine melanoma model, 1×10^5 B16-F10 cells were injected subcutaneously. Test compounds were administered by I.P. injection in a dose range of 10-100 mg/kg starting on study day 1 (7 days after tumor implantation). Control groups received vehicle (water) twice daily by I.P. injection. Tumor volume measured by digital caliper (length×width×width/2) and body weight were recorded three times per week. Animals were euthanized when tumors necrotized or volumes reached 2000 mm3.
One-way Anova, student's T test, and Mann-Whitney test performed by GraphPad5 PRISM software (GraphPad Software, Inco, San Diego, Calif., USA) were used according to different experimental conditions. P value<0.05 was considered statistically significant. Significance is indicated in the figures by asterisks *p<0.05, **p<0.01.
Female Balb/C mice (8 weeks old) were injected with 1×10^5 4T1 cells into the mammary fat pad. […] Tumor volume was measured by digital caliper (length×width×width/2). […]

Turning to `Nc1nc(N2CCN(c3ccc(O)cc3)CC2)nc2c1ncn2-c1ccncc1` [Example 80, 4-(4-(6-amino-9-(pyridin-4-yl)-9H-purin-2-yl)piperazin-1-yl)phenol], the IC50 was 0.01 to 0.0977 µM at MIF and 5.02 µM with BV2 cells.

Turning to `Nc1nc(N2CCN(c3ccc(O)cc3)CC2)nc2c1ncn2-c1cncnc1` [Example 81, 4-(4-(6-amino-9-(pyrimidin-5-yl)-9H-purin-2-yl)piperazin-1-yl)phenol], the IC50 on MIF is 1 to 9.77 µM; in the experiment with BV2 cells, 23.1 µM.

For `Oc1ccc(N2CCN(c3nc(NCC4CC4)c4ncn(-c5cccnc5)c4n3)CC2)cc1` [Example 95, 4-(4-(6-((cyclopropylmethyl)amino)-9-(pyridin-3-yl)-9H-purin-2-yl)piperazin-1-yl)phenol], the IC50 at MIF is 1 to 9.77 µM; in the experiment on BV2 cells, 6.92 µM.

As for `Nc1ccn([C@@H]2O[C@H](CO)[C@@H](O)C2(F)F)c(=O)n1` [Gemcitabine, gemcitabine], in the experiment on 4T1 cells, the “breast cancer growth (tumor volume), combination” value is “Synergistically Inhibited Breast Cancer Growth”.
